# From US7994209B2, “3-phenoxymethylpyrrolidine compounds” (Theravance, Inc., priority 2009, dated 2011)
# Target: T1, hSERT (Homo sapiens, UniProt P31645)
# Assay: hSERT neurotransmitter uptake assay (3H-5-HT), Assay 2
# Type: cell-based
# Parameters: expressed in transfected cells; host or cells: HEK-293
# Conditions: serotonin reuptake inhibition, 3H-5-HT uptake, HEK-293 hSERT cells (values without asterisk); read-out: SERT pIC50 (converted)
# Description: (§1) Cells were harvested by centrifugation at 1100 rpm for 5 minutes, washed once by resuspension in PBS, then centrifuged. The supernatant was discarded and the cell pellet resuspended, by gentle trituration, in room temperature Krebs-Ringer bicarbonate buffer containing HEPES (10 mM), CaCl2 (2.2 mM), ascorbic acid (200 μM) and pargyline (200 μM), pH 7.4.
# (§2) Test compounds were incubated for 30 minutes at 37° C. with the respective cells, prior to addition of radiolabeled neurotransmitter, ^3H-5-HT (20 nM final concentration), ^3H-NE (50 nM final concentration) or ^3H-DA (100 nM final concentration).
# T1 sequence (P31645 whole entry): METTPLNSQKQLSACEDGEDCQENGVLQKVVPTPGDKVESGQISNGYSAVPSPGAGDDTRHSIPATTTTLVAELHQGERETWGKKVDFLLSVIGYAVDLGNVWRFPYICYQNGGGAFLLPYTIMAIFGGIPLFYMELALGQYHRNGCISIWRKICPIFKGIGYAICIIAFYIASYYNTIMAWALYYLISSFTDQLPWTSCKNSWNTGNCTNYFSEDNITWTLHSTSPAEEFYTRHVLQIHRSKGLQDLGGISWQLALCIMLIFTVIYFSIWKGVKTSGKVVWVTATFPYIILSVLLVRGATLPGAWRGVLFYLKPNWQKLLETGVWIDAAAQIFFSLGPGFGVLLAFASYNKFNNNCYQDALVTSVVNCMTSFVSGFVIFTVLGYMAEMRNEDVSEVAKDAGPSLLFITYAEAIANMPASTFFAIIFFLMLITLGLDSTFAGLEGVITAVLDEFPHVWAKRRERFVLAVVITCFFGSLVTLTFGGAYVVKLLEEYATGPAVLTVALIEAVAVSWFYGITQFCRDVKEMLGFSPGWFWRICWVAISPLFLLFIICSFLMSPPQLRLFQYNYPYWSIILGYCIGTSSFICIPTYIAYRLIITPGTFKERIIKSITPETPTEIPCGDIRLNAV
row,SMILES,IC50 [µM]
1,"CC(C)[C@H](Oc1ccc(Cl)cc1)[C@H]1CCNC1 [Example 5, (S)-3-[(S)-1-(4-Chlorophenoxy)-2-methylpropyl]pyrrolidine]",≤ 0.01
2,"CC(C)[C@H](Oc1ccc(Cl)c(F)c1F)[C@H]1CCNC1 [Example 6-10, (S)-3-[(S)-1-(4-Chloro-2,3-difluorophenoxy)-2-methylpropyl]pyrrolidine]",≤ 0.01
3,"CC(C)[C@H](Oc1ccc(Cl)cc1Cl)[C@H]1CCNC1 [Example 6-21, (S)-3-[(S)-1-(2,4-Dichlorophenoxy)-2-methylpropyl]pyrrolidine]",≤ 0.01
4,"Cc1ccc(O[C@@H](C(C)C)[C@H]2CCNC2)c(Cl)c1 [Example 6-24, (S)-3-[(S)-1-(2-Chloro-4-methylphenoxy)-2-methylpropyl]pyrrolidine]",≤ 0.01
5,"CC(C)[C@H](Oc1c(F)cc(Cl)cc1Cl)[C@H]1CCNC1 [Example 6-30, (S)-3-[(S)-1-(2,4-Dichloro-6-fluorophenoxy)-2-methylpropyl]pyrrolidine]",≤ 0.01
6,"CC(C)[C@H](Oc1c(F)ccc(Cl)c1Cl)[C@H]1CCNC1 [Example 6-34, (S)-3-[(S)-1-(2,3-Dichloro-6-fluorophenoxy)-2-methylpropyl]pyrrolidine]",≤ 0.01
7,"CC(C)[C@H](Oc1c(Cl)ccc(Cl)c1Cl)[C@H]1CCNC1 [Example 6-35, (S)-3-[(S)-2-Methyl-1-(2,3,6-trichlorophenoxy)-propyl]-pyrrolidine]",≤ 0.01
8,"CC(C)[C@H](Oc1c(F)ccc(F)c1Cl)[C@H]1CCNC1 [Example 6-36, (S)-3-[(S)-1-(2-Chloro-3,6-difluorophenoxy)-2-methylpropyl]pyrrolidine]",≤ 0.1

# Now from value to compound:
row,IC50 [µM],SMILES
1,≤ 0.01,"CC(C)[C@H](Oc1ccc(Cl)c(Cl)c1F)[C@H]1CCNC1 [Example 6-7, (S)-3-[(S)-1-(3,4-Dichloro-2-fluorophenoxy)-2-methylpropyl]pyrrolidine]"
2,≤ 0.1,"CC(C)C(Oc1ccccc1Cl)C1CCNC1 (centres unmarked) [Example 6-11, 3-[1-(2-Chlorophenoxy)-2-methylpropyl]pyrrolidine]"
3,≤ 0.01,"CC(C)[C@H](Oc1cccc(Cl)c1Cl)[C@H]1CCNC1 [Example 6-12, (S)-3-[(S)-1-(2,3-Dichlorophenoxy)-2-methylpropyl]pyrrolidine]"
4,≤ 0.01,"CC(C)C(Oc1cccc(Cl)c1Cl)C1CCNC1 (centres unmarked) [Example 6-13, 3-[1-(2,3-Dichlorophenoxy)-2-methylpropyl]pyrrolidine]"
5,≤ 0.01,"CC(C)[C@@H](Oc1cccc(Cl)c1Cl)[C@H]1CCNC1 [Example 6-14, (S)-3-[(R)-1-(2,3-Dichlorophenoxy)-2-methylpropyl]pyrrolidine]"
6,≤ 0.01,"CC(C)[C@@H](Oc1cccc(Cl)c1Cl)[C@@H]1CCNC1 [Example 6-15, (R)-3-[(R)-1-(2,3-Dichlorophenoxy)-2-methylpropyl]pyrrolidine]"
7,≤ 0.01,"CC(C)[C@H](Oc1cccc(F)c1Cl)[C@H]1CCNC1 [Example 6-17, (S)-3-[(S)-1-(2-Chloro-3-fluorophenoxy)-2-methylpropyl]pyrrolidine]"
8,≤ 0.1,"CC(C)C(Oc1cccc(F)c1Cl)C1CCNC1 (centres unmarked) [Example 6-18, 3-[1-(2-Chloro-3-fluorophenoxy)-2-methylpropyl]pyrrolidine]"
9,≤ 0.01,"CC(C)[C@@H](Oc1cccc(F)c1Cl)[C@H]1CCNC1 [Example 6-19, (S)-3-[(R)-1-(2-Chloro-3-fluorophenoxy)-2-methylpropyl]pyrrolidine]"

# Target: T2, hNET (Homo sapiens, UniProt P23975)
# Assay: hNET membrane radioligand binding assay (3H-nisoxetine), Assay 1
# Conditions: not given
# T2 sequence (P23975 whole entry): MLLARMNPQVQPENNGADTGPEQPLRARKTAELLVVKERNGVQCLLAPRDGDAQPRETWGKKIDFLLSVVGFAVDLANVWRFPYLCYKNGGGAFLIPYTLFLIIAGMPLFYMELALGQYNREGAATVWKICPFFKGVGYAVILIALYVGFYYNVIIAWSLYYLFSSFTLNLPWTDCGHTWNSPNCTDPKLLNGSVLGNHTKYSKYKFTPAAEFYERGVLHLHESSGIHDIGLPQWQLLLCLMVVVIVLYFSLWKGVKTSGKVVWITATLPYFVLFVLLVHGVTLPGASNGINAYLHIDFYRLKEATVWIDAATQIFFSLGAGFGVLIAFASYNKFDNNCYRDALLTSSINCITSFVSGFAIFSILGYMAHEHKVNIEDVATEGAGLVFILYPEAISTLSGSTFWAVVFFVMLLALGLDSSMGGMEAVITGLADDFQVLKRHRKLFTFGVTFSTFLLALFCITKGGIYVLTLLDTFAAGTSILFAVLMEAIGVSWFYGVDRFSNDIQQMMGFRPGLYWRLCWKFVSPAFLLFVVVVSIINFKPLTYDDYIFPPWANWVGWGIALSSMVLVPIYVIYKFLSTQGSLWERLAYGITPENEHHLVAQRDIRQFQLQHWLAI
row,SMILES,Ki [µM]
1,"CC(C)[C@H](Oc1ccc(Cl)cc1)[C@H]1CCNC1 [Example 5, (S)-3-[(S)-1-(4-Chlorophenoxy)-2-methylpropyl]pyrrolidine]",≤ 0.01
2,"CC(C)[C@H](Oc1ccc(Cl)c(F)c1F)[C@H]1CCNC1 [Example 6-10, (S)-3-[(S)-1-(4-Chloro-2,3-difluorophenoxy)-2-methylpropyl]pyrrolidine]",≤ 0.01
3,"CC(C)[C@H](Oc1ccc(Cl)cc1Cl)[C@H]1CCNC1 [Example 6-21, (S)-3-[(S)-1-(2,4-Dichlorophenoxy)-2-methylpropyl]pyrrolidine]",≤ 0.01
4,"Cc1ccc(O[C@@H](C(C)C)[C@H]2CCNC2)c(Cl)c1 [Example 6-24, (S)-3-[(S)-1-(2-Chloro-4-methylphenoxy)-2-methylpropyl]pyrrolidine]",≤ 0.01
5,"CC(C)[C@H](Oc1c(F)cc(Cl)cc1Cl)[C@H]1CCNC1 [Example 6-30, (S)-3-[(S)-1-(2,4-Dichloro-6-fluorophenoxy)-2-methylpropyl]pyrrolidine]",≤ 0.01
6,"CC(C)[C@H](Oc1c(F)ccc(Cl)c1Cl)[C@H]1CCNC1 [Example 6-34, (S)-3-[(S)-1-(2,3-Dichloro-6-fluorophenoxy)-2-methylpropyl]pyrrolidine]",≤ 0.01
7,"CC(C)[C@H](Oc1c(Cl)ccc(Cl)c1Cl)[C@H]1CCNC1 [Example 6-35, (S)-3-[(S)-2-Methyl-1-(2,3,6-trichlorophenoxy)-propyl]-pyrrolidine]",≤ 0.01
8,"CC(C)[C@H](Oc1c(F)ccc(F)c1Cl)[C@H]1CCNC1 [Example 6-36, (S)-3-[(S)-1-(2-Chloro-3,6-difluorophenoxy)-2-methylpropyl]pyrrolidine]",≤ 0.01

# More lines, now with the values ahead:
row,Ki [µM],SMILES
1,≤ 0.01,"CC(C)[C@H](Oc1ccc(Cl)c(Cl)c1F)[C@H]1CCNC1 [Example 6-7, (S)-3-[(S)-1-(3,4-Dichloro-2-fluorophenoxy)-2-methylpropyl]pyrrolidine]"
2,≤ 0.01,"CC(C)C(Oc1ccccc1Cl)C1CCNC1 (centres unmarked) [Example 6-11, 3-[1-(2-Chlorophenoxy)-2-methylpropyl]pyrrolidine]"
3,≤ 0.01,"CC(C)[C@H](Oc1cccc(Cl)c1Cl)[C@H]1CCNC1 [Example 6-12, (S)-3-[(S)-1-(2,3-Dichlorophenoxy)-2-methylpropyl]pyrrolidine]"
4,≤ 0.01,"CC(C)C(Oc1cccc(Cl)c1Cl)C1CCNC1 (centres unmarked) [Example 6-13, 3-[1-(2,3-Dichlorophenoxy)-2-methylpropyl]pyrrolidine]"
5,≤ 0.01,"CC(C)[C@@H](Oc1cccc(Cl)c1Cl)[C@H]1CCNC1 [Example 6-14, (S)-3-[(R)-1-(2,3-Dichlorophenoxy)-2-methylpropyl]pyrrolidine]"
6,≤ 0.01,"CC(C)[C@@H](Oc1cccc(Cl)c1Cl)[C@@H]1CCNC1 [Example 6-15, (R)-3-[(R)-1-(2,3-Dichlorophenoxy)-2-methylpropyl]pyrrolidine]"
7,≤ 0.01,"CC(C)[C@H](Oc1cccc(F)c1Cl)[C@H]1CCNC1 [Example 6-17, (S)-3-[(S)-1-(2-Chloro-3-fluorophenoxy)-2-methylpropyl]pyrrolidine]"
8,≤ 0.01,"CC(C)C(Oc1cccc(F)c1Cl)C1CCNC1 (centres unmarked) [Example 6-18, 3-[1-(2-Chloro-3-fluorophenoxy)-2-methylpropyl]pyrrolidine]"
9,≤ 0.1,"CC(C)[C@@H](Oc1cccc(F)c1Cl)[C@H]1CCNC1 [Example 6-19, (S)-3-[(R)-1-(2-Chloro-3-fluorophenoxy)-2-methylpropyl]pyrrolidine]"

# Target: T1, hSERT
# Assay: hSERT membrane radioligand binding assay (3H-citalopram), Assay 1
# Conditions: SERT pKi, hSERT HEK-293 membranes, 1.0 nM 3H-citalopram; values given as lower bounds
row,SMILES,Ki [µM]
1,"CC(C)[C@H](Oc1ccc(Cl)cc1)[C@H]1CCNC1 [Example 5, (S)-3-[(S)-1-(4-Chlorophenoxy)-2-methylpropyl]pyrrolidine]",≤ 0.01
2,"CC(C)[C@H](Oc1ccc(Cl)c(F)c1F)[C@H]1CCNC1 [Example 6-10, (S)-3-[(S)-1-(4-Chloro-2,3-difluorophenoxy)-2-methylpropyl]pyrrolidine]",≤ 0.01
3,"CC(C)[C@H](Oc1ccc(Cl)cc1Cl)[C@H]1CCNC1 [Example 6-21, (S)-3-[(S)-1-(2,4-Dichlorophenoxy)-2-methylpropyl]pyrrolidine]",≤ 0.01
4,"Cc1ccc(O[C@@H](C(C)C)[C@H]2CCNC2)c(Cl)c1 [Example 6-24, (S)-3-[(S)-1-(2-Chloro-4-methylphenoxy)-2-methylpropyl]pyrrolidine]",≤ 0.01
5,"CC(C)[C@H](Oc1c(F)cc(Cl)cc1Cl)[C@H]1CCNC1 [Example 6-30, (S)-3-[(S)-1-(2,4-Dichloro-6-fluorophenoxy)-2-methylpropyl]pyrrolidine]",≤ 0.01
6,"CC(C)[C@H](Oc1c(F)ccc(Cl)c1Cl)[C@H]1CCNC1 [Example 6-34, (S)-3-[(S)-1-(2,3-Dichloro-6-fluorophenoxy)-2-methylpropyl]pyrrolidine]",≤ 0.01
7,"CC(C)[C@H](Oc1c(Cl)ccc(Cl)c1Cl)[C@H]1CCNC1 [Example 6-35, (S)-3-[(S)-2-Methyl-1-(2,3,6-trichlorophenoxy)-propyl]-pyrrolidine]",≤ 0.01
8,"CC(C)[C@H](Oc1c(F)ccc(F)c1Cl)[C@H]1CCNC1 [Example 6-36, (S)-3-[(S)-1-(2-Chloro-3,6-difluorophenoxy)-2-methylpropyl]pyrrolidine]",≤ 0.01

# The remaining lines, values ahead:
row,Ki [µM],SMILES
1,≤ 0.01,"CC(C)[C@H](Oc1ccc(Cl)c(Cl)c1F)[C@H]1CCNC1 [Example 6-7, (S)-3-[(S)-1-(3,4-Dichloro-2-fluorophenoxy)-2-methylpropyl]pyrrolidine]"
2,≤ 0.01,"CC(C)C(Oc1ccccc1Cl)C1CCNC1 (centres unmarked) [Example 6-11, 3-[1-(2-Chlorophenoxy)-2-methylpropyl]pyrrolidine]"
3,≤ 0.01,"CC(C)[C@H](Oc1cccc(Cl)c1Cl)[C@H]1CCNC1 [Example 6-12, (S)-3-[(S)-1-(2,3-Dichlorophenoxy)-2-methylpropyl]pyrrolidine]"
4,≤ 0.01,"CC(C)C(Oc1cccc(Cl)c1Cl)C1CCNC1 (centres unmarked) [Example 6-13, 3-[1-(2,3-Dichlorophenoxy)-2-methylpropyl]pyrrolidine]"
5,≤ 0.01,"CC(C)[C@@H](Oc1cccc(Cl)c1Cl)[C@H]1CCNC1 [Example 6-14, (S)-3-[(R)-1-(2,3-Dichlorophenoxy)-2-methylpropyl]pyrrolidine]"
6,≤ 0.01,"CC(C)[C@@H](Oc1cccc(Cl)c1Cl)[C@@H]1CCNC1 [Example 6-15, (R)-3-[(R)-1-(2,3-Dichlorophenoxy)-2-methylpropyl]pyrrolidine]"
7,≤ 0.01,"CC(C)[C@H](Oc1cccc(F)c1Cl)[C@H]1CCNC1 [Example 6-17, (S)-3-[(S)-1-(2-Chloro-3-fluorophenoxy)-2-methylpropyl]pyrrolidine]"
8,≤ 0.01,"CC(C)C(Oc1cccc(F)c1Cl)C1CCNC1 (centres unmarked) [Example 6-18, 3-[1-(2-Chloro-3-fluorophenoxy)-2-methylpropyl]pyrrolidine]"
9,≤ 0.01,"CC(C)[C@@H](Oc1cccc(F)c1Cl)[C@H]1CCNC1 [Example 6-19, (S)-3-[(R)-1-(2-Chloro-3-fluorophenoxy)-2-methylpropyl]pyrrolidine]"

# Target: T2, hNET
# Assay: hNET neurotransmitter uptake assay (3H-NE), Assay 2
# Type: cell-based
# Parameters: expressed in transfected cells; host or cells: HEK-293
# Conditions: norepinephrine reuptake inhibition, 3H-NE uptake, HEK-293 hNET cells (values without asterisk); read-out: NET pIC50 (converted)
# Description: as §1, §2
row,SMILES,IC50 [µM]
1,"CC(C)[C@H](Oc1ccc(Cl)cc1)[C@H]1CCNC1 [Example 5, (S)-3-[(S)-1-(4-Chlorophenoxy)-2-methylpropyl]pyrrolidine]",≤ 0.01
2,"CC(C)[C@H](Oc1ccc(Cl)c(F)c1F)[C@H]1CCNC1 [Example 6-10, (S)-3-[(S)-1-(4-Chloro-2,3-difluorophenoxy)-2-methylpropyl]pyrrolidine]",≤ 0.01
3,"CC(C)[C@H](Oc1ccc(Cl)cc1Cl)[C@H]1CCNC1 [Example 6-21, (S)-3-[(S)-1-(2,4-Dichlorophenoxy)-2-methylpropyl]pyrrolidine]",≤ 0.01
4,"Cc1ccc(O[C@@H](C(C)C)[C@H]2CCNC2)c(Cl)c1 [Example 6-24, (S)-3-[(S)-1-(2-Chloro-4-methylphenoxy)-2-methylpropyl]pyrrolidine]",≤ 0.01
5,"CC(C)[C@H](Oc1c(F)cc(Cl)cc1Cl)[C@H]1CCNC1 [Example 6-30, (S)-3-[(S)-1-(2,4-Dichloro-6-fluorophenoxy)-2-methylpropyl]pyrrolidine]",≤ 0.01
6,"CC(C)[C@H](Oc1c(F)ccc(Cl)c1Cl)[C@H]1CCNC1 [Example 6-34, (S)-3-[(S)-1-(2,3-Dichloro-6-fluorophenoxy)-2-methylpropyl]pyrrolidine]",≤ 0.01
7,"CC(C)[C@H](Oc1c(Cl)ccc(Cl)c1Cl)[C@H]1CCNC1 [Example 6-35, (S)-3-[(S)-2-Methyl-1-(2,3,6-trichlorophenoxy)-propyl]-pyrrolidine]",≤ 0.01
8,"CC(C)[C@H](Oc1c(F)ccc(F)c1Cl)[C@H]1CCNC1 [Example 6-36, (S)-3-[(S)-1-(2-Chloro-3,6-difluorophenoxy)-2-methylpropyl]pyrrolidine]",≤ 0.01

# Further lines, results first:
row,IC50 [µM],SMILES
1,≤ 0.01,"CC(C)[C@H](Oc1ccc(Cl)c(Cl)c1F)[C@H]1CCNC1 [Example 6-7, (S)-3-[(S)-1-(3,4-Dichloro-2-fluorophenoxy)-2-methylpropyl]pyrrolidine]"
2,≤ 0.01,"CC(C)C(Oc1ccccc1Cl)C1CCNC1 (centres unmarked) [Example 6-11, 3-[1-(2-Chlorophenoxy)-2-methylpropyl]pyrrolidine]"
3,≤ 0.01,"CC(C)[C@H](Oc1cccc(Cl)c1Cl)[C@H]1CCNC1 [Example 6-12, (S)-3-[(S)-1-(2,3-Dichlorophenoxy)-2-methylpropyl]pyrrolidine]"
4,≤ 0.01,"CC(C)C(Oc1cccc(Cl)c1Cl)C1CCNC1 (centres unmarked) [Example 6-13, 3-[1-(2,3-Dichlorophenoxy)-2-methylpropyl]pyrrolidine]"
5,≤ 0.01,"CC(C)[C@@H](Oc1cccc(Cl)c1Cl)[C@H]1CCNC1 [Example 6-14, (S)-3-[(R)-1-(2,3-Dichlorophenoxy)-2-methylpropyl]pyrrolidine]"
6,≤ 0.01,"CC(C)[C@@H](Oc1cccc(Cl)c1Cl)[C@@H]1CCNC1 [Example 6-15, (R)-3-[(R)-1-(2,3-Dichlorophenoxy)-2-methylpropyl]pyrrolidine]"
7,≤ 0.01,"CC(C)[C@H](Oc1cccc(F)c1Cl)[C@H]1CCNC1 [Example 6-17, (S)-3-[(S)-1-(2-Chloro-3-fluorophenoxy)-2-methylpropyl]pyrrolidine]"
8,≤ 0.01,"CC(C)C(Oc1cccc(F)c1Cl)C1CCNC1 (centres unmarked) [Example 6-18, 3-[1-(2-Chloro-3-fluorophenoxy)-2-methylpropyl]pyrrolidine]"
9,≤ 0.1,"CC(C)[C@@H](Oc1cccc(F)c1Cl)[C@H]1CCNC1 [Example 6-19, (S)-3-[(R)-1-(2-Chloro-3-fluorophenoxy)-2-methylpropyl]pyrrolidine]"
